The record followed here is paper PMC3662789, “Structural Investigation of a Novel N-Acetyl Glucosamine Binding Chi-Lectin Which Reveals Evolutionary Relationship with Class III Chitinases” (PLoS ONE, 2013).

For this assay, the target named is T1, TCLL (tamarind chitinase like lectin) (Tamarindus indica, UniProt S4S1V9).
T1 construct: monomer, glycosylated at Asn146; 33440 Da (deglycosylated 31811 Da); 266 residues modelled (7-272)
Nature of the assay: isothermal titration calorimetry (single-site model). The assay is classed as binding. As to conditions: 20 mM Tris, pH 7.4, 25°C; 0.3 mM protein, 8 mM sugar in syringe; crystal complex at 1.6 Å with two surface sites S1 and S2.

T1 sequence (S4S1V9 entry or part of it): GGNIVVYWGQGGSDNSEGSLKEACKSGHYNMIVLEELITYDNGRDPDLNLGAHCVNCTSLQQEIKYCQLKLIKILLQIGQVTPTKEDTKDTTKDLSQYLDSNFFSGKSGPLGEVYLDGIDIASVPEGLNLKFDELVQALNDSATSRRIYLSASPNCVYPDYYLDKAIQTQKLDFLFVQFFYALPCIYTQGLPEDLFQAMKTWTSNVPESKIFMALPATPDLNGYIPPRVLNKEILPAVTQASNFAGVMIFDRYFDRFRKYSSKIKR

`CC(=O)N[C@H]1C(O)O[C@H](CO)[C@@H](O)[C@@H]1O` (stereo partly shown) [N-acetyl glucosamine]: the Ka was 2.9×10^3.
